Experimental findings from ChEMBL document CHEMBL5108045, “Identification and Utilization of a Chemical Probe to Interrogate the Roles of PIKfyve in the Lifecycle of β-Coronaviruses” (J Med Chem, 2022) are described below.

For one experiment, the system named is HEK-293T. Description: (§1) Inhibition of His-6 tagged SARS-CoV-2 spike protein uptake in ACE2 overexpressing HEK293T cells at 1 uM incubated for 30 mins by DAPI staining based confocal microscopy analysis. The experiment is classed as functional. The following applies: Homo sapiens.
Experiment [1] in a line: as §1. The experiment is classed as functional. The following applies: Homo sapiens, HEK-293T, 0.5 h.

Structures are written as SMILES. The source made the active and inactive calls. The calls are words filed in the database; no cut-off is given here.

For the compound `Cc1cccc(/C=N/Nc2cc(N3CCOCC3)nc(OCCc3ccccn3)n2)c1`, in the experiment on HEK-293T, the inhibition result is “Active”.

Turning to `Nc1ncc2c(n1)-c1c([nH]c3ccc(-c4ccc(F)cc4)cc13)CCC2`, the inhibition result in the experiment on HEK-293T was “Active”.

`CC(C)(O)C#Cc1ccc2[nH]c3c(c2c1)-c1nc(N)ncc1CCC3` displayed an inhibition at 1 µM in experiment [1] of less than 10%.

In the case of `CN(C)CC#Cc1ccc2[nH]c3c(c2c1)-c1nc(N)ncc1CCC3`, in the experiment on HEK-293T, the inhibition result was “Active”.

The term inhibition denotes the change of the read-out against control, counted positive when it falls.
